Data as given in patent publication US6600063B1, “Derivatives of phenyl 4-aminosalicylate and method of making the same” (priority 2000, dated 2003).
≈ marks a conversion by molar mass, not a printed value.

What was measured:
Experiment in all cases: microbe, parasite or virus in culture
Format in all cases: cell-based
[1] = test system: M. tuberculosis ETA-R strain; conditions: Mycobacterium tuberculosis, read-out: MIC ETA-R (ug/ml)
[2] = test system: M. tuberculosis strain resistant to isoniazid (ATCC 35822); conditions: Mycobacterium tuberculosis, ATCC35822, read-out: MIC INH-R (ug/ml)
[3] = test system: M. tuberculosis strain resistant to rifampin (ATCC 35838); conditions: Mycobacterium tuberculosis, ATCC35838, read-out: MIC RMP-R (ug/ml)
[4] = test system: M. tuberculosis EMB-R strain; conditions: Mycobacterium tuberculosis, read-out: MIC EMB-R (ug/ml)

## O=C(Oc1ccccc1)c1ccc(NC(=S)Nc2ccccc2)cc1O [SAMPLE ID 131326]
[1]
  MIC: 0.2 µg/mL (≈ 0.549 µM)
[2]
  MIC: ≤ 0.1 µg/mL
[3]
  MIC: 0.2 µg/mL (≈ 0.549 µM)
[4]
  MIC: 0.2 µg/mL (≈ 0.549 µM)
